Experimental data published in patent US9458463B2, “Method for treatment of diabetes by a small molecule inhibitor for GRK5” (MAX-PLANCK-GESELLSCHAFT ZUR FÖRDERUNG DER WISSENSCHAFTEN …, priority 2010, dated 2016).
pIC50: −log10 of the molar value.

molecular target: T1, full length GRK5 (Homo sapiens, UniProt P34947); assay: GRK5 kinase activity assay, ADP Glo Kinase Assay technology (Promega); assay type: biochemical; settings: group II; ADP Glo Kinase Assay (Table 9-B)
T1 construct: 6/2 fold concentrated full length GRK5 (Millipore, #14-714) in reaction buffer; purchased Millipore 14-714
Description: The maximal compound assay concentration was set to 100 μM, representing the compound assay concentration used in the primary screen.
Increasing concentrations of GRK5 are incubated together with 100 μM ATP in the absence and presence of 10 μM casein in a reaction buffer. Within this incubation non-phosphorylated casein is converted into phosphorylated casein and ATP is converted into ADP. Thereafter nonconverted ATP is digested into AMP by addition of the ADP-Glo™ Reagent. Subsequently the ADP that is produced by GRK5 activity is phosphorylated back to ATP by addition of Promega Kinase Detection Reagent. These ATP levels serve as measure for the GRK5 activity and are quantified by a luciferase/luciferin reaction.
For GRK5 kinase activity assay, the following protocol was used:
The reaction buffer used was composed of: 20 mM MES pH 6.0, 1 mM DTT, 10 mM MgCl2, 0.01% Tween20 and the reaction volume was 6 μL.
Firstly 4 μL 6/4 fold concentrated substrate and 6/4 fold concentrated ATP in 1 fold concentrated reaction buffer are added to each well of the assay plate. Subsequently 67 nL […] concentrated test compound in 100% DMSO are added to each well except to C− and C+ wells using pin tool. Then 67 nL 100% DMSO are pipetted to C− (no kinase, no compound) and C+ (no compound) wells using pin-tool and 2 μL reaction buffer are added to C− wells. […] After incubation for 120 min. at room temperature 6 μL ADP-Glo™ Reagent (ADP Glo™ Kinase Assay Kit: Promega, V9101) are added to each well to stop the kinase reaction and deplete the unconsumed ATP. After a second incubation for 40 min. at room temperature 12 μL of Kinase Detection Reagent are added to convert ADP to ATP and start luciferase/luciferin reaction for detection of ATP. […] Finally, after incubation for 40 min at room temperature the luminescence intensity was measured.
The activity of the compounds was classified according to IC50 for binding sites of Grk5 into the following ranges:
8800 Customer compounds were screened for their ability to inhibit the enzymatic activity of GRK5. Screening was performed using the ADP Glo™ Kinase Assay technology (Promega). The small molecular weight compounds were delivered at 10 mM stock concentration and were tested at a final assay concentration of 100 μM.
IC50 values were determined in triplicates at 12 concentrations with a dilution factor of three. Triplicates were measured on three different assay plates. The maximal compound assay concentration was set to 100 μM representing the compound assay concentration used in the primary screen. A larger maximal compound assay concentration could not be achieved since the maximal compound concentration on the compound plates was 10 mM (>1% DMSO concentration in the assay).

T1 sequence (P34947 whole entry): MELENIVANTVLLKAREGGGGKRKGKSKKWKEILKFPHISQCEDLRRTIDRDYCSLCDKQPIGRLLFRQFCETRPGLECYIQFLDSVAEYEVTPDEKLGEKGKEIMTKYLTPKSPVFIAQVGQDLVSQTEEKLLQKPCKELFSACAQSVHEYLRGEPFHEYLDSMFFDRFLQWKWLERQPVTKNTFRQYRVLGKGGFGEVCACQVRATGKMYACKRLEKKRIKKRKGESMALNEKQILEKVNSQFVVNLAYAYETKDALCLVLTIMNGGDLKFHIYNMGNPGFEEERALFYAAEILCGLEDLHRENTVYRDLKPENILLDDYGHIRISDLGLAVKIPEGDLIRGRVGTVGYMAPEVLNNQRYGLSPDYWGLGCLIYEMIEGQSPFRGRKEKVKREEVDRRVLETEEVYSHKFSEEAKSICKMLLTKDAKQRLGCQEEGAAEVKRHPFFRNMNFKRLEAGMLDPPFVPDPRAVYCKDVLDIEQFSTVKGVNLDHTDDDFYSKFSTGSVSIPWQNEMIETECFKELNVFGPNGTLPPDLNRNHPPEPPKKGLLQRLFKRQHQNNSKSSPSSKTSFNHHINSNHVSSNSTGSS

pIC50 | Compound
5.70 to 6.00 | CCC(NC(=O)c1ccc2c(c1)/C(=C/c1[nH]c(C)c(CCC(=O)O)c1C)C(=O)N2)c1cccc(Cl)c1 (stereo not drawn) [II.134, (3Z)-3-(5-{5-[1-(3-chloro-phenyl)-propylcarbamoyl]-2-oxo-1,2-dihydro-indol-3-ylidenemethyl}-2,4-dimethyl-1H-pyrrol-3-yl)-propionic acid]
5.70 to 6.00 | Cc1[nH]c(/C=C2\C(=O)Nc3ccc(C(=O)O)cc32)c(C)c1C(=O)NCCN1CCCC1 [II.2]
6.00 to 7.00 | Cc1[nH]c(/C=C2\C(=O)Nc3ccc(C(=O)O)cc32)c(C)c1C(=O)N[C@H](C)c1ccccc1 [II.137, (3Z)-3-[3,5-dimethyl-4-((1R)-1-phenyl-ethylcarbamoyl)-1H-pyrrol-2-ylmethylene]-2-oxo-2,3-dihydro-1H-indole-5-carboxylic acid]

same assay, conditions: group II; final assay concentration 5 μM

Compound | inhibition at 5 µM [%]
Cc1[nH]c(/C=C2\C(=O)Nc3ccc(C(=O)O)cc32)c(C)c1C(=O)NC(Cc1ccccc1)C(=O)O (stereo in doubt) [II.153, (3Z)-3-[4-((1R)-1-carboxy-2-phenyl-ethylcarbamoyl)-3,5-dimethyl-1H-pyrrol-2-ylmethylene]-2-oxo-2,3-dihydro-1H-indole-5-carboxylic acid] | 56
COc1ccc([C@@H](C)NC(=O)c2ccc3c(c2)/C(=C/c2c[nH]c4ccccc24)C(=O)N3)cc1 [II.193, (3Z)-3-(1H-indol-3-ylmethylene)-2-oxo-2,3-dihydro-1H-indole-5-carboxylic acid [(1R)-1-(4-methoxy-phenyl)-ethyl]-amide] | 88
Cc1[nH]c(/C=C2\C(=O)Nc3ccc(C(=O)N[C@H](C)c4ccc(Cl)cc4)cc32)c(C)c1C(=O)N1CCCCC1 [II.66, (3Z)-N-[(1R)-1-(4-chlorophenyl)ethyl]-3-{[3,5-dimethyl-4-(piperidin-1-ylcarbonyl)-1H-pyrrol-2-yl]methylene}-2-oxoindoline-5-carboxamide] | 76
Cc1[nH]c(/C=C2\C(=O)Nc3ccc(C(=O)NCc4c(F)cccc4F)cc32)c(C)c1C(=O)N1CC[C@H](N(C)C)C1 [II.190, (3Z)-3-[4-((3S)-3-dimethylamino-pyrrolidine-1-carbonyl)-3,5-dimethyl-1H-pyrrol-2-ylmethylene]-2-oxo-2,3-dihydro-1H-indole-5-carboxylic acid 2,6-difluoro-benzylamide] | 61
COC(=O)CC[C@H](NC(=O)c1c(C)[nH]c(/C=C2\C(=O)Nc3ccc(C(=O)N[C@@H](Cc4ccccc4)C(=O)OC)cc32)c1C)C(=O)OC [II.167, (3Z)-2-({5-[5-((1S)-1-methoxycarbonyl-2-phenyl-ethylcarbamoyl)-2-oxo-1,2-dihydro-indol-3-ylidenemethyl]-2,4-dimethyl-1H-pyrrole-3-carbonyl}-amino)-(S)-pentanedioic acid dimethyl ester] | 81
CC[C@H](NC(=O)c1ccc2c(c1)/C(=C/c1ccc(C(=O)N3CCN(C)CC3)cc1)C(=O)N2)c1ccccc1 [II.58, (3Z)-3-{4-[(4-methylpiperazin-1-yl)carbonyl]benzylidene}-2-oxo-N-[(1S)-1-phenylpropyl]indoline-5-carboxamide] | 96
COc1ccc([C@@H](C)NC(=O)c2ccc3c(c2)/C(=C/c2[nH]c(C)cc2C)C(=O)N3)cc1 [II.170, (3Z)-3-(3,5-dimethyl-1H-pyrrol-2-ylmethylene)-2-oxo-2,3-dihydro-1H-indole-5-carboxylic acid [(1R)-1-(4-methoxy-phenyl)-ethyl]-amide] | 58
C[C@@H](NC(=O)c1ccc2c(c1)/C(=C/Nc1ccc(CN3CCCCC3)cc1)C(=O)N2)C1CCCCC1 [II.77, (3Z)-N-[(1R)-1-cyclohexylethyl]-2-oxo-3-({[4-(piperidin-1-ylmethyl)phenyl]amino}methylene)indoline-5-carboxamide] | 98
CC[C@@H](NC(=O)c1ccc2c(c1)/C(=C/c1[nH]c(C)c(C(=O)N3CCN(C4CCN(C)CC4)CC3)c1C)C(=O)N2)c1ccccc1 [II.181, (3Z)-3-{3,5-dimethyl-4-[4-(1-methyl-piperidin-4-yl)-piperazine-1-carbonyyl]-1H-pyrrol-2-ylmethylene}-2-oxo-2,3-dihydro-1H-indole-5-carboxylic acid ((1R)-1-phenyl-propyl)-amide] | 49
CCOC(=O)c1c(C)[nH]c(/C=C2\C(=O)Nc3ccc(C(=O)N[C@@H](Cc4ccccc4)C(=O)OC)cc32)c1C [II.157, (3Z)-5-[5-((1S)-1-methoxycarbonyl-2-phenyl-ethylcarbamoyl)-2-oxo-1,2-dihydro-indol-3-ylidenemethyl]-2,4-dimethyl-1H-pyrrole-3-carboxylic II. acid ester ethyl] | 74

The next lines start with the values.

inhibition at 5 µM [%] | Compound
66 | Cc1[nH]c(/C=C2\C(=O)Nc3ccc(C(=O)NCc4c(F)cccc4F)cc32)c(C)c1C(=O)N1CCC[C@@H]1CN1CCCC1 [II.191, (3Z)-3-[3,5-dimethyl-4-((2R)-2-pyrrolidin-1-ylmethyl-pyrrolidine-1-carbonyl)-1H-pyrrol-2-ylmethylene]-2-oxo-2,3-dihydro-1H-indole-5-carboxylic acid 2,6-difluoro-benzylamide]
76 | Cc1[nH]c(/C=C2\C(=O)Nc3ccc(C(=O)NCc4c(F)ccc(Cl)c4F)cc32)c(C)c1C(=O)N1CCC[C@H]1CN1CCCC1 [II.187, (3Z)-3-[3,5-dimethyl-4-((2S)-2-pyrrolidin-1-ylmethyl-pyrrolidine-1-carbonyl)-1H-pyrrol-2-ylmethylene]-2-oxo-2,3-dihydro-1H-indole-5-carboxylic acid 3-chloro-2,6-difluoro-benzylamide]
86 | Cc1[nH]c(/C=C2\C(=O)Nc3ccc(C(=O)NCc4c(F)cccc4F)cc32)c(C)c1C(=O)NCCN1CCCCC1 [II.192, (3Z)-3-[3,5-dimethyl-4-(2-piperidin-1-yl-ethylcarbamoyl)-1H-pyrrol-2-ylmethylene]-2-oxo-2,3-dihydro-1H-indole-5-carboxylic acid 2,6-difluoro-benzylamide]
48 | Cc1[nH]c(/C=C2\C(=O)Nc3ccc(C(=O)O)cc32)c(C)c1C(=O)NC(C)C(=O)O (stereo in doubt) [II.148, (3Z)-3-[4-(1-carboxy-(1R)-ethylcarbamoyl)-3,5-dimethyl-1H-pyrrol-2-ylmethylene]-2-oxo-2,3-dihydro-1H-indole-5-carboxylic acid]
98 | Cc1[nH]c(/C=C2\C(=O)Nc3ccc(C(=O)NCc4c(F)cccc4F)cc32)c(C)c1C(=O)N1CCC[C@H]1CN1CCCC1 [II.189, (3Z)-3-[3,5-dimethyl-4-((2S)-2-pyrrolidin-1-ylmethyl-pyrrolidine-1-carbonyl)-1H-pyrrol-2-ylmethylene]-2-oxo-2,3-dihydro-1H-indole-5-carboxylic acid 2,6-difluoro-benzylamide]
